# Data taken from patent US12643871B2, “Aryl formamide compound containing chiral sulfur oxide or salt thereof, preparation method, herbicidal composition and use thereof” (Qingdao Kingagroot Chemical Compound Co., Ltd., priority 2019, dated 2026).
# Key:
# Type in all cases: in vivo
# Rice(Longyang 16) = assay: Comparison experiment (post-emergence), crop safety on direct seeding rice; conditions: for Results of comparison experiment, Rice(Longyang 16) (250 g/ha) / Results of comparison experiment, Rice(Longyang 16) (500 g/ha): 1.5-2 leaf-stage of direct seeding rice variety Longyang 16, 25 DAA
# From the text: (§1) The above growth control rates are fresh weight control rates.
# (§2) Experiment on weeding effect in post-emergence stage: monocotyledonous and dicotyledonous weed seeds (Descurainia sophia, Capsella bursa-pastoris, Galium aparine, Stellaria media, Lithospermum arvense, Rorippa indica, Alopecurus aequalis, Beckmannia syzigachne, Sclerochloa dura, Phleum paniculatum, Bromus japonicus, Aegilops tauschii, Phalaris arundinacea, Amaranthus retroflexus, Chenopodiaceae, Commelina communis, Sonchus arvensis, convolvulus arvensis, Cirsium setosum, Solanum nigrum, Acalypha australis, Digitaria sanguinalis, Echinochloa crusgalli, Setaria viridis, Setaria glauca, Leptochloa chinensis, Monochoria vaginalis, Sagittaria trifolia, Scirpus juncoides, Cyperus rotundus, Cyperus iria, Cyperus difformis, Fimbristylis, Portulaca oleracea, Xanthium sibiricum, Pharbitis nil) and major crop seeds (wheat, corn, rice, soybean, cotton, oilseed rape, millet, sorghum, potato, sesame, ricinus) were placed in plastic pots filled with soil, then covered with 0.5-2 cm of soil, allowed to grow in a good greenhouse environment. After 2 weeks of sowing, the test plants were treated in the 2 leaf stage. The tested compounds of the present invention were respectively dissolved in acetone, then added with Tween 80 and 1.5 liter/ha of emulsifiable concentrate of methyl oleate as synergist, diluted with a certain amount of water to obtain a solution with a certain concentration, and sprayed with a spray tower onto the plants. After the application, the plants were cultured for 15 days in the greenhouse, and then the experimental results of the weeding were counted. The doses of the used compounds were 500, 250, 125, 60, 30, 15 g/ha, and the averages were obtained by repeating for three times.
# (§3) If there is no clear marker, the post-seedling test conditions are the same as above, and the experimental results are shown in Tables 4-7.
# Longyang 16 is an important cultivated variety representative of long-grain fragrant rice in northeast China. Long-grain fragrant rice is sensitive to herbicides and prone to drug damage, especially HPPD herbicides such as mesotrione and benzobicylon. […] It was not consistent with the well-known structure-activity relationship that aryloxyphenoxypropionic acid herbicides and phenoxypropionic acid herbicides in effective form have high activity to weeds and heavy damage to crops, and in ineffective form have almost no activity.
# Digitaria sanguinalis [1] = assay: Comparison experiment (post-emergence) against racemate / S configuration; conditions: 30 g/ha, 3-4 weeks after sowing, 4-5 leaf-stage of weed, 25DAA; for pest or weed control at 30 g/ha: Digitaria sanguinalis, post-emergence, 600 h
# Abutilon theophrasti [2] = assay: as above; conditions: 30 g/ha; 3-4 weeks after sowing, 4-5 leaf-stage of weed, 25DAA
# From the text: as §1
# as §2, with “After 2 weeks of sowing, the test plants were treated in the 2 leaf stage.” left out, “After the application, the plants were cultured for 15 days in the greenhouse, and then the experimental results of the weeding were counted. The doses of the used compounds were 500, 250, 125, 60, 30, 15 g/ha, and the averages were obtained by repeating for three times.” left out
# as §3
# Leptochloa chinensis = assay: as above; conditions: for Results of comparison experiment, Leptochloa chinensis (60 g/ha) / Results of comparison experiment, Leptochloa chinensis (125 g/ha): 3-4 weeks after sowing, 4-5 leaf-stage of weed; for Results of comparison experiment, Leptochloa chinensis (60 g/ha): 25DAA; for Results of comparison experiment, Leptochloa chinensis (125 g/ha): 25 DAA (Table 5)
# From the text: as §1
# as §2, with “After 2 weeks of sowing, the test plants were treated in the 2 leaf stage.” left out, “After the application, the plants were cultured for 15 days in the greenhouse, and then the experimental results of the weeding were counted. The doses of the used compounds were 500, 250, 125, 60, 30, 15 g/ha, and the averages were obtained by repeating for three times.” left out
# as §3
# Green Setaria viridis = assay: as above; conditions: for Results of comparison experiment, Green Setaria viridis (60 g/ha): 25DAA
# From the text: as §1
# as §2, with “After 2 weeks of sowing, the test plants were treated in the 2 leaf stage.” left out, “After the application, the plants were cultured for 15 days in the greenhouse, and then the experimental results of the weeding were counted. The doses of the used compounds were 500, 250, 125, 60, 30, 15 g/ha, and the averages were obtained by repeating for three times.” left out
# as §3
# Amaranthus retroflexus = assay: Weeding effect in post-emergence stage; conditions: 250 g/ha; 2 leaf stage; 15 days after application; fresh weight control rate
# Outline: (§4)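 Reported levels reflect fresh weight growth control rate banded 0 (<5%) through 5 (>85%), averaged over three repetitions. Treatment: foliar spray of 2-leaf-stage greenhouse plants at 15 to 500 g/ha, with 1.5 liter/ha methyl oleate synergist; assessment 15 days after application.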
# Abutilon theophrasti [3] = assay: Weeding effect in post-emergence stage; conditions: 250 g/ha; 2 leaf stage; 15 days after application; fresh weight control rate
# Outline: as §4
# Echinochloa crusgali = assay: Weeding effect in post-emergence stage; conditions: 250 g/ha; 2 leaf stage; 15 days after application; fresh weight control rate
# Outline: as §4
# Setaria viridis = assay: Weeding effect in post-emergence stage; conditions: 250 g/ha; 2 leaf stage; 15 days after application; fresh weight control rate
# Outline: as §4
# Digitaria sanguinalis [4] = assay: Weeding effect in post-emergence stage; conditions: 250 g/ha; 2 leaf stage; 15 days after application; fresh weight control rate
# Outline: as §4
# [5] = tested on: key weeds such as Digitaria sanguinalis, Leptochloa chinensis; assay: Comparison experiment (post-emergence, Tables 4-7), herbicidal activity on weeds not listed separately; conditions: dose of 125, 60, 30, 15 g/ha
# Outline: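 Readout: fresh weight control rate, counted 15 days post-spray and averaged over three replicates. Pot-grown plants (seeds under 0.5-2 cm soil) were treated at the 2 leaf stage, two weeks after sowing, with 15–500 g/ha compound plus methyl oleate synergist at 1.5 liter/ha.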
# rice and other crops = assay: Comparison experiment (post-emergence, Tables 4-7), crop safety; conditions: dose of 125, 60, 30, 15 g/ha
# From the text: as §1, §2, §3
# Alopecurus japonicas = assay: Comparison experiment (post-emergence) against racemate / S configuration; conditions: Table 6, post-seedling test conditions
# From the text: as §1, §2, §3
# Digitaria sanguinalis [6] = assay: as above; conditions: Table 6, post-seedling test conditions; for pest or weed control at 30 g/ha: Digitaria sanguinalis, post-emergence
# From the text: as §1, §2, §3
# [7] = 3-4 weeks after sowing, 4-5 leaf-stage of weed, 25 DAA (Table 5)
# [8] = 3-4 weeks after sowing, 4-5 leaf-stage of weed
# [9] = Table 6, post-seedling test conditions
Compound,"Results of comparison experiment, Digitaria sanguinalis (30 g/ha) (Digitaria sanguinalis [1]) [%]","Results of comparison experiment, Abutilon theophrasti (30 g/ha) (Abutilon theophrasti [2]) [%]","Results of comparison experiment, Leptochloa chinensis (60 g/ha) (Leptochloa chinensis) [%]","Results of comparison experiment, Green Setaria viridis (60 g/ha) (Green Setaria viridis; [8]) [%]","weeding effect in post-emergence stage, activity level (growth control rate), Amaranthus retroflexus (Amaranthus retroflexus)","weeding effect in post-emergence stage, activity level (growth control rate), Abutilon theophrasti (Abutilon theophrasti [3])","weeding effect in post-emergence stage, activity level (growth control rate), Echinochloa crusgali (Echinochloa crusgali)","weeding effect in post-emergence stage, activity level (growth control rate), Setaria viridis (Setaria viridis)","weeding effect in post-emergence stage, activity level (growth control rate), Digitaria sanguinalis (Digitaria sanguinalis [4])",further results
"CCC[S+]([O-])c1c(C(F)(F)F)ccc(C(=O)Nc2nnc(C)o2)c1F (single isomer, unassigned) [Control Compound A]",0,0,0,15,,,,,,"Results of comparison experiment, Rice(Longyang 16) (250 g/ha) (Rice(Longyang 16)): 15%; Results of comparison experiment, Rice(Longyang 16) (500 g/ha) (Rice(Longyang 16)): 25%; safety to rice (Longyang 16), in words (Rice(Longyang 16); summary of Table 5): not safe; Results of comparison experiment, Leptochloa chinensis (125 g/ha) (Leptochloa chinensis): 10%; activity against key weeds such as Leptochloa chinensis, in words (Leptochloa chinensis; summary of Table 5): lower activity; Results of comparison experiment, Green Setaria viridis (30 g/ha) (Green Setaria viridis; [7]): 0%"
"CCC[S+]([O-])c1c(C(F)(F)F)ccc(C(=O)Nc2nnc(C)o2)c1F (single isomer, unassigned) [Control Compound B]",80,90,30,90,,,,,,"Results of comparison experiment, Rice(Longyang 16) (250 g/ha) (Rice(Longyang 16)): 5%; Results of comparison experiment, Rice(Longyang 16) (500 g/ha) (Rice(Longyang 16)): 15%; Results of comparison experiment, Leptochloa chinensis (125 g/ha) (Leptochloa chinensis): 80%; Results of comparison experiment, Green Setaria viridis (30 g/ha) (Green Setaria viridis; [7]): 10%"
"Cc1nnc(NC(=O)c2ccc(C(F)(F)F)c([S+](C)[O-])c2F)o1 (single isomer, unassigned) [Control Compound C]",,60,0,20,,,,,,pest or weed control at 30 g/ha (Digitaria sanguinalis [1]): 0%
"Cc1nnc(NC(=O)c2ccc(C(F)(F)F)c([S+](C)[O-])c2F)o1 (single isomer, unassigned) [Control Compound D]",0,50,0,10,,,,,,
Cc1nnc(NC(=O)c2ccc(C(F)(F)F)c([S@@+](C)[O-])c2F)o1 [Compound 1],90,100,70,80,5 (Level 5: growth control rate is above 85%),5 (Level 5: growth control rate is above 85%),5 (Level 5: growth control rate is above 85%),3 (Level 3: growth control rate is greater than or equal to 40% and less than 60%),3 (Level 3: growth control rate is greater than or equal to 40% and less than 60%),
CCC[S@@+]([O-])c1c(C(F)(F)F)ccc(C(=O)N(c2nnc(C)o2)C(C)OC(=O)OCC)c1F (stereo partly shown) [Compound 261],,,,,5 (Level 5: growth control rate is above 85%),5 (Level 5: growth control rate is above 85%),5 (Level 5: growth control rate is above 85%),5 (Level 5: growth control rate is above 85%),5 (Level 5: growth control rate is above 85%),"activity to key weeds such as Digitaria sanguinalis, Leptochloa chinensis compared with the corresponding racemate or S configuration [5]: better activity; safety to rice and other crops compared with the corresponding racemate or S configuration (rice and other crops): higher safety"
CSc1c(C(=O)Nc2nnc(C)o2)ccc(C(F)(F)F)c1[S@@+](C)[O-] [Compound 547],,,,,,,,,,"Results of comparison experiment, Alopecurus japonicas (120 g/ha) (Alopecurus japonicas): 40%; Results of comparison experiment, Digitaria sanguinalis (30 g/ha) (Digitaria sanguinalis [6]): 90%; Results of comparison experiment, Green Setaria viridis (30 g/ha) (Green Setaria viridis; [9]): 80%"
CCC[S@@+]([O-])c1c(C(F)F)ccc(C(=O)Nc2nnc(C)o2)c1Cl [Compound 617],,,,,5 (Level 5: growth control rate is above 85%),5 (Level 5: growth control rate is above 85%),5 (Level 5: growth control rate is above 85%),5 (Level 5: growth control rate is above 85%),5 (Level 5: growth control rate is above 85%),"activity to key weeds such as Digitaria sanguinalis, Leptochloa chinensis compared with the corresponding racemate or S configuration [5]: better activity; safety to rice and other crops compared with the corresponding racemate or S configuration (rice and other crops): higher safety"
CCC[S@@+]([O-])c1c(C(F)F)ccc(C(=O)Nc2nnc(C)o2)c1F [Compound 637],,100,90,100,5 (Level 5: growth control rate is above 85%),5 (Level 5: growth control rate is above 85%),5 (Level 5: growth control rate is above 85%),5 (Level 5: growth control rate is above 85%),5 (Level 5: growth control rate is above 85%),"pest or weed control at 30 g/ha (Digitaria sanguinalis [1]): 100%; activity to key weeds such as Digitaria sanguinalis, Leptochloa chinensis compared with the corresponding racemate or S configuration [5]: better activity; safety to rice and other crops compared with the corresponding racemate or S configuration (rice and other crops): higher safety"
CC[S+]([O-])c1c(C(F)(F)F)ccc(C(=O)Nc2nnc(C)o2)c1SC (stereo not shown) [Control Compound B′],,,,,,,,,,"Results of comparison experiment, Alopecurus japonicas (120 g/ha) (Alopecurus japonicas): 0%; pest or weed control at 30 g/ha (Digitaria sanguinalis [6]): 30%; Results of comparison experiment, Green Setaria viridis (30 g/ha) (Green Setaria viridis; [9]): 30%"
CCS(=O)(=O)c1c(C(F)(F)F)ccc(C(=O)Nc2nnc(C)o2)c1SC [Control Compound C′],,,,,,,,,,"Results of comparison experiment, Alopecurus japonicas (120 g/ha) (Alopecurus japonicas): 20%; pest or weed control at 30 g/ha (Digitaria sanguinalis [6]): 10%; Results of comparison experiment, Green Setaria viridis (30 g/ha) (Green Setaria viridis; [9]): 80%"
Cc1nnc(NC(=O)c2ccc(C(F)F)c([S+](C)[O-])c2F)o1 (stereo not shown) [Control Compound E],,60,10,25,,,,,,pest or weed control at 30 g/ha (Digitaria sanguinalis [1]): 5%
